This experiment has as its system Cmm. The experiment in a line: Agar well diffusion assay against Cmm. It counts as cell-based, Clavibacter michiganensis subsp. michiganensis. The procedure: In addition, the antibacterial activity of various fractions and the purified antibiotic produced by B. pumilus was assessed via agar well diffusion assay. Cmm was grown as described above and a suspension of 100 μL was evenly spread over fresh NBYA plates using sterile spreader. Wells of 6 mm diameter were carefully made in the agar and 50 μL of the test fraction or antibiotic test sample extracted from B. pumilus was poured into the agar well. Sterilized distilled water served as a control treatment.
The antimicrobial activities of Micrococcin P1 at various concentrations were assessed via agar well diffusion assay. A cell suspension of Cmm was overlaid on NBYA and the plates were allowed to air dry. A 50 μL drop of Micrococcin P1 diluted in various concentrations were applied into agar well.
In general terms: In agar diffusion tests the substance spreads into inoculated agar from a disc or well.

Values joined by “and” are separate entries in the source; they are usually repeats but may differ in a detail not shown here. Equal entries are not always repeated.

Turning to Micrococcin P1, for the setting “50 μL in 6 mm agar well, NBYA, 28° C., 3 days”, the “antibacterial activity against Cmm, zone of inhibition around the well” value was “antimicrobial activity against Cmm”. Besides, the “concentration having the most significant effects” value (highest concentration tested) was 5 mg/L and 4.37 μM. In addition, the “amount per well needed for growth inhibition zones” value (per well in 50 μL, NBYA, 3 days 28° C.) is at least 7.8125 ng. For the setting “various concentrations, FIG. 7”, the “dose dependence of antibacterial activities” value is “increased proportional to the Micrococcin P1 concentrations”.

The values above are taken from patent US20260182582A1, “METHODS AND COMPOSITIONS FOR BIOPROTECTION OF TOMATOES FROM CLAVIBACTER MICHIGANENSIS SUBSP. MICHIGANENSIS” (The Royal Institution for the Advancement of …, priority 2018, published 2026).
